# Results published in patent US10766855B2, “Hydroxamate triterpenoid derivatives” (VIVACELL BIOTECHNOLOGY ESPANA S.L., priority 2016, dated 2020).
# Key:
# HUVEC = assay: Endothelial cell tube formation (angiogenesis) in HUVEC co-cultured with fibroblasts; format: cell-based, human; conditions: 1 μM, 7 days
# Description: Measurements of endothelial cell tube formation as a model of angiogenesis in green fluorescent Human endothelial vascular cells (HUVEC) co-cultured with primary fibroblasts and stimulated separately with compound VII (1 μM), rhFGF (10 ng/ml) and VEGFA (10 ng/ml) for 7 days. Values represent the mean±SEM (n=3).
# To test the functional consequences of compound VII stimulation in a physiological model, endothelial cell tube formation was measured as a model of angiogenesis. CellPlayer™ GFP AngioKit-96 (Essen BioScience Inc., Welwyn Garden City, UK) was supplied as growing co-cultures of human matrix (normal human dermal fibroblast, NHDF) and endothelial cells (HUVEC) at the earliest stages of tubule formation. CellPlayer 96-well kinetic angiogenesis assay was performed according to the manufacturer's protocol. Briefly, lentivirally infected green fluorescent protein (GFP)-HUVECs were cocultured with normal human dermal fibroblasts in a 96-well microplate. The plate was placed in IncuCyte, and images were automatically acquired in both phase and fluorescence every 6 hours for 7 days. […] Tube formation over the 7-day assay was quantified using the Essen BioScience Angiogenesis Analysis Module. […] Briefly, the fluorescent images were analyzed to generate a segmentation mask closely resembling the in vitro network. […]
# HIF-1α = HIF-1α transactivation assay in NIH-3T3-EPO-Luc fibroblast cells; format: cell-based; conditions: 6 h stimulation
# Description: To investigate the biological activities of the different compounds, HIF-1α transactivation assays were performed either in NIH-3T3-EPO-Luc cells (Table II) or in HaCaT-EPO-luc cells (FIG. 2). The NIH3T3-EPO-luc and HaCaT-EPO-luc cells have been stably transfected with the plasmid Epo-Luc plasmid. The EPO-Hypoxia Response Element (HRE)-luciferase reporter plasmid contains three copies of the HRE consensus sequence from the promoter of the erythropoietin gene fused to the luciferase gene. NIH3T3-EPO-luc cells were maintained at 37° C. in a humidified atmosphere containing 5% CO2 in DMEM supplemented with 10% fetal calf serum (FBS), and 1% (v/v) penicillin/streptomycin. DFX was purchased from Sigma-Aldrich (USA). Cells (1×10^4/well in 96 well plates) were seeded the day before the assay. […] After six hours of stimulation the cells were lysed in 25 mM Tris-phosphate pH 7.8, 8 mM MgCl2, 1 mM DTT, 1% Triton X-100, and 7% glycerol during 15 min at RT in a horizontal shaker. Luciferase activity is measured using a microplate luminometer (Berthold) following the instructions of the luciferase assay kit (Promega, Madison, Wis., USA).
# HFD mice = assay: High fat diet (HFD) model of diabetes and metabolic pathologies in mice; format: in vivo, mouse; conditions: 30 mg/kg i.p. every 24 h
# Description: High-fat diet-fed mouse is a widely used model for impaired glucose tolerance (IGT) and type 2 diabetes. Eight-week-old male C57BL/6 mice (Charles River-France) were used for experiments. Mice were maintained under controlled conditions [12 h light/dark cycle; temperature 20° C. (±2° C.) and 40-50% relative humidity] with free access to tap water and standard rodent chow ad libitum. After 1 week of acclimatization, mice were divided into two groups and fed ad libitum with a standard diet—CD- (Code U8220G10R, SAFE Diets, Augy, France) or a High-Fat diet—HFD- (D12451; Research Diets, New Brunswick, N.J.) in order to induce obesity for 15 weeks (diet-induced obesity, DIO). In order to assess the potential beneficial metabolic effects of compound VII in this model of DIO, pharmacological administration of the compound (30 mg/kg body weight) was performed by intraperitoneal (i.p.) injection every 24 h from 12th to 15th week of diet exposure. Control animals received the corresponding vehicle injections (1:1:18 Ethanol:Cremophor:Saline).
# To ensure the effectiveness of HFD feeding regimen and assess the efficacy of compounds in terms of amelioration of the metabolic phenotype, body composition analyses of fat and lean masses were performed by QMR (quantitative magnetic resonance) using the EchoMRI™ 700 analyzer (Houston, Tex., software v. 2.0). In this sense, MRI scans were taken in three time points during the experimental period: before starting diet exposure, after 12 week of feeding regimen (coinciding with start of treatment) and at the end of experimental procedures (on the 15th week of diet exposure). Additionally, five days before sacrifice, glucose tolerance test (GTT) was performed in overnight food-deprived mice. To this end, mice were injected intraperitoneally with 2 mg of glucose/g body weight and blood glucose was measured before and 30, 60 and 120 min after injection utilizing an Accu-Chek Advantage® (Roche) glucometer. At the end of the experiment, mice were sacrificed and blood samples were collected using EDTA-coated tubes and plasma stored at −80° C. Plasma triglycerides were measured using and enzymatic colorimetric kit (QCA, Barcelona, Spain).
# Nrf2 = Nrf2 activation/inhibition in HaCaT-ARE-Luc cells; format: cell-based; conditions: 6 h
# Description: The HeLa-STAT3-luc cells stably transfected with the plasmid 4×M67 pTATA TK-Luc. Cells (20×10^3 cells/ml) were seeded in 96-well plates, treated with increasing concentrations of the compounds II to XIV, and of comparative compound CDDO-Me, for 15 min and then stimulated with IFN-γ 25 IU/ml. After 6 h the luciferase activity in the cell lysates was measured as indicated above. […] The HaCaT-ARE-Luc cell line contains the Nqo1 Antioxidant Response Element (ARE)-Luc reporter plasmid. ARE is activated by all members of the CNC family of factors (Nrf1, Nrf2, Nrf3 and p45 NF-E2). The cells were cultivated in 96-well plates at the concentration of 25×10^3 cells/well in a CO2 incubator at 37° C. For induction of Nrf2 activation the cells were treated with increasing concentrations of the compounds II to XV, and of comparative compound CDDO-Me, for 6 h. As a positive control the cells were treated with 0.02 mM of the antioxidant Tert-butyl-hydroquinone (TBHQ). Luciferase activity in the cell lysates was measured as indicated above and the EC50 calculated (Table III). The CHO-TGR5-CRE-Luc cells stably transfected with the pTGR5 and CRE-Luc. The CRE-responsive luciferase construct encodes the firefly luciferase reporter gene under the control of a minimal (m)CMV promoter and tandem repeats of the CRE transcriptional response element (TRE) and is useful to monitor cAMP signaling pathways activated by TGR5 agonists. Cells (1×10^4/well) were seeded in 96-well plates, treated with increasing concentrations of the compounds II to XV and CDDO-Me, for 6 h. As a positive control the cells were treated with 10 μM of LCA (lithocholic acid). Luciferase activity in the cell lysates was measured as indicated above and the EC50 calculated (Table III).
smiles,measurement,setting,value
"C=C(C)[C@@H]1CC[C@]2(C(=O)NO)CC[C@]3(C)[C@H](CC[C@@H]4[C@@]5(C)CC[C@H](O)C(C)(C)[C@@H]5CC[C@]43C)[C@@H]12 [Compound VII, (3β) 3-Hydroxy-N-hydroxy-lup-20(29)-en-28-amide]",network length in HUVEC cells,HUVEC,increased significantly the network length
same,Efficacy HIF-1α (IRA coefficient),HIF-1α; relative to 150 μM DFX,0.36
same,EC50,"HIF-1α; Fibroblast, read-out: Potency EC50 HIF-1α",4.81 µM
same,glucose tolerance (GTT),HFD mice; 3 weeks,improved glucose tolerance
same,plasma levels of triglycerides,HFD mice; 3 weeks,normalize the plasma levels of triglycerides
same,adiposity,HFD mice; 12th to 15th week,alleviated
same,increase in Fat Mass,HFD mice; 12th to 15th week,alleviated
same,weight gain,HFD mice; 12th to 15th week,alleviated weight gain
same,EC50,Nrf2,> 50 µM
